# Experimental data reported in patent US6049003A, “Azoamidine compound” (Wako Pure Chemical Industries, Ltd., priority 1998, dated 2000).
# Experiments:
# [1] = solution polymerization of acrylamide with the azoamidine compound as initiator (Table 1); details: acrylamide in water, 50° C.
# Protocol: Acrylamide (20 g) was dissolved in 380 g of distilled water and 0.01 g of the azoamidine compound obtained in Example 1 was added thereto as a polymerization initiator. The reaction solution was heated at 50° C. with stirring under nitrogen gas atmosphere to cause polymerization reaction. After the polymerization reaction was started, samplings of the reaction solution were conducted at predetermined intervals, and the samples were precipitated by methanol to recover the produced polymer, followed by drying. The polymerization rates at each sampling time were measured.
# The same polymerization reaction as Example 4 was conducted except for using azoamidine compounds, in which an α-amino acid residue as introduced, of 2,2'-azobis(N-carboxymethyl-2-methylpropionamidine) [drawing 10] or 2,2'-azobis[N-(1-carboxyethyl)-2-methylpropionamidine] [drawing 11] as a polymerization initiator.
# [2] = emulsion polymerization of styrene with the azoamidine compound as initiator (Table 2); details: for Polymerization Rate(%): sodium dodecyl sulfate
# Protocol: Distilled water (400 g), sodium dodecyl sulfate (4 g) and azoamidine compound (0.5 g) obtained in Example 1 were mixed with one another and were stirred to give a solution, and 200 g of styrene monomer was added thereto, followed by stirring to make emulsion. The resultant was subjected to polymerization reaction at 50° C. with stirring under nitrogen gas atmosphere. After the polymerization reaction was started, samplings of the reaction solution were conducted at predetermined intervals, and the samples were precipitated by methanol to recover the produced polymer, followed by drying. The polymerization rates at each sampling time were measured.
# The same emulsion polymerization as Example 5 was conducted except for using a typical known azoamidine compound, of 2,2'-azobis(2-methylpropionamidine) dihydrochloride as a polymerization initiator.
# [3] = decomposition rate constant at 50° C. (Table 1); format: physicochemical
# [4] = 10 hours half life temperature; format: physicochemical
# [5] = comparison of solubility in various kinds of solvents (Table 3); format: physicochemical
# [6] = 50° C., polymerization time 1 H
# [7] = 50° C., polymerization time 1.5 H
# [8] = 50° C., polymerization time 2 H
# [9] = 50° C., polymerization time 3 H
# [10] = 50° C., polymerization time 4 H
# [11] = 50° C., polymerization time 5 H
# [12] = 50° C., polymerization time 6 H
solubility in Water [5] [%],solubility in Methanol (in words) ([5]; Methanol),Structure (SMILES),Polymerization Rate(%) ([1]; polymerization time 1 H),Polymerization Rate(%) ([1]; polymerization time 1.5 H),Polymerization Rate(%) ([1]; polymerization time 2 H),Polymerization Rate(%) ([1]; polymerization time 3 H),Polymerization Rate(%) ([1]; polymerization time 4 H),Polymerization Rate(%) ([1]; polymerization time 5 H),Polymerization Rate(%) ([1]; polymerization time 6 H),"Polymerization Rate(%) [2, 6] [%]","Polymerization Rate(%) [2, 7] [%]","Polymerization Rate(%) [2, 8] [%]","Polymerization Rate(%) [2, 9] [%]","Polymerization Rate(%) [2, 10] [%]","Polymerization Rate(%) [2, 11] [%]","Polymerization Rate(%) [2, 12] [%]",also measured
0.4,insoluble,"CC(C)(N=NC(C)(C)C(=N)NCC(=O)O)C(=N)NCC(=O)O [Reference Example 1, 2,2'-azobis(N-carboxymethyl-2-methylpropionamidine)]",15.8,21.2,25.0,32.5,37.2,38.3,41.2,,,,,,,,
0.8,insoluble,"CC(NC(=N)C(C)(C)N=NC(C)(C)C(=N)NC(C)C(=O)O)C(=O)O (stereo not drawn) [Reference Example 2, 2,2'-azobis[N-(1-carboxyethyl)-2-methylpropionamidine]]",19.0,24.2,28.8,33.8,38.5,46.3,47.1,,,,,,,,
,,"CC(C)(N=NC(C)(C)C(=N)N)C(=N)N.Cl.Cl [Reference Example 3, 2,2'-azobis(2-methylpropionamidine) dihydrochloride]",,,,,,,,32.0,37.1,69.9,88.4,91.4,93.1,92.2,dead end phenomenon in emulsion polymerization ([2]; 50° C.): dead end phenomenon was observed; polymerization rate at 6 hour polymerization and later (in words) ([2]; 6 hours and later): reduced

Structure (SMILES),solubility in Water [5] [%],solubility in Methanol (in words) ([5]; Methanol),Polymerization Rate(%) ([1]; polymerization time 1 H),Polymerization Rate(%) ([1]; polymerization time 1.5 H),Polymerization Rate(%) ([1]; polymerization time 2 H),Polymerization Rate(%) ([1]; polymerization time 3 H),Polymerization Rate(%) ([1]; polymerization time 4 H),Polymerization Rate(%) ([1]; polymerization time 5 H),Polymerization Rate(%) ([1]; polymerization time 6 H),"Polymerization Rate(%) [2, 6] [%]","Polymerization Rate(%) [2, 7] [%]","Polymerization Rate(%) [2, 8] [%]","Polymerization Rate(%) [2, 9] [%]","Polymerization Rate(%) [2, 10] [%]","Polymerization Rate(%) [2, 11] [%]","Polymerization Rate(%) [2, 12] [%]",also measured
"CC(C)(N=NC(C)(C)C(=N)NCCC(=O)O)C(=N)NCCC(=O)O.O.O [Example 1, 2,2'-azobis[N-(2-carboxyethyl)-2-methylpropionamidine] dihydrate]",10.0,,6.7,22.3,34.2,53.3,64.8,70.6,74.7,25.2,51.0,74.3,89.2,93.5,94.4,95.4,Decomposition Rate Constant at 50° C. [3]: 7.3e-06 s⁻¹; 10 hours half life temperature [4]: 57 °C; solubility in Methanol ([5]; Methanol): 36.9%
